Measured values taken from patent publication US20100022491A1, “4-HYDROXY-2-OXO-2,3-DIHYDRO-1,3-BENZOTHIAZOL-7YL COMPOUNDS FOR MODULATION OF B2-ADRENORECEPTOR ACTIVITY” (ASTRAZENECA AB, priority 2006, published 2010).
Counter-ions that a name gives are not always drawn.

Target: T1, Adrenergic β2 (Homo sapiens, UniProt P07550)
T1 construct: Adherent H292 cells were removed from tissue culture flasks; endogenous in cells; host or cells: H292 cells
Assay: Adrenergic β2 mediated cAMP production in H292 cells
Type: cell-based
Conditions: for EC50: H292 cells, cAMP by AlphaScreen, 60 minutes at room temperature, rolipram 300 μM, read-out: β2 pEC50 (converted); for β2 Int Act: Intrinsic Activity as a fraction relative to the maximum activity determined for formoterol
Outline: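 H292 cells pretreated 10 min with rolipram (300 μM final), then exposed to agonist 60 min at room temperature in HEPES-buffered HBSS, 1.6% DMSO final. Lysate cAMP quantified by AlphaScreen against a cAMP standard curve; four-parameter fit gives pEC50 and intrinsic activity relative to formoterol maximum.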

T1 sequence (P07550 whole entry): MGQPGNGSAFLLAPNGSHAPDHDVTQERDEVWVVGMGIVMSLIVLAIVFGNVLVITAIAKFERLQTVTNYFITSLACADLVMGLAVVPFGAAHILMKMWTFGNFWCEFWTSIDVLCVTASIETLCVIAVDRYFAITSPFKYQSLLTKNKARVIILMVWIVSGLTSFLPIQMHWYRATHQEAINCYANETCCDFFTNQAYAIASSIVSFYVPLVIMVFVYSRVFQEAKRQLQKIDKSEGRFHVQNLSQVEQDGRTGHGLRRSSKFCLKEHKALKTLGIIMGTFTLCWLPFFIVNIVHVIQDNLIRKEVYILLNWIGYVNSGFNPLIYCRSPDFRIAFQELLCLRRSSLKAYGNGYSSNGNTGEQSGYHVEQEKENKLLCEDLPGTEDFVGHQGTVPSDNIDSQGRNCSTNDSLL

Row | SMILES | EC50 [nM] | β2 Int Act
1 | CC1(C)CCC(N(CCNCCc2ccc(O)c3[nH]c(=O)sc23)C(=O)CCNCCc2cccc(O)c2)CC1 [Example 91, N^1-(4,4-Dimethylcyclohexyl)-N^1-(2-{[2-(4-hydroxy-2-oxo-2,3-dihydro-1,3-benzothiazol-7-yl)ethyl]amino}ethyl)-N^3-[2-(3-hydroxyphenyl)ethyl]-β-alaninamide bis-trifluoroacetic acid salt] | 3.98 | 0.75
2 | COc1ccc(CCNCCC(=O)N(CCNCCc2ccc(O)c3[nH]c(=O)sc23)C2CCCCCC2)cc1OC [Example 86, N^1-Cycloheptyl-N^3-[2-(3,4-dimethoxyphenyl)ethyl]-N^1-(2-{[2-(4-hydroxy-2-oxo-2,3-dihydro-1,3-benzothiazol-7-yl)ethyl]amino}ethyl)-β-alaninamide bis-trifluoroacetic acid salt] | 39.8 | 0.43
3 | O=C(CCNCCc1ccccc1)N(CCNCCc1ccc(O)c2[nH]c(=O)sc12)C1CCC(F)(F)CC1 [Example 4, N-(4,4-Difluorocyclohexyl)-N-(2-{[2-(4-hydroxy-2-oxo-2,3-dihydro-1,3-benzothiazol-7-yl)ethyl]amino}ethyl)-N^3-(2-phenylethyl)-β-alaninamide bis-trifluoroacetic acid salt] | 1 | 0.79
4 | O=C(CCNCCc1ccccc1)N(CCNCCc1ccc(O)c2[nH]c(=O)sc12)C1CCCCC1 [Example 5, N-Cyclohexyl-N-(2-{[2-(4-hydroxy-2-oxo-2,3-dihydro-1,3-benzothiazol-7-yl)ethyl]amino}ethyl)-N^3-(2-phenylethyl)-β-alaninamide bis-trifluoroacetic acid salt] | 2.51 | 0.83
5 | O=C(CCNCCc1cccc(O)c1)N(CCNCCc1ccc(O)c2[nH]c(=O)sc12)C1CCCCCCC1 [Example 90, N^1-Cyclooctyl-N^1-(2-{[2-(4-hydroxy-2-oxo-2,3-dihydro-1,3-benzothiazol-7-yl)ethyl]amino}ethyl)-N^3-[2-(3-hydroxyphenyl)ethyl]-β-alaninamide bis-trifluoroacetic acid salt] | 3.98 | 0.71
6 | O=C(CCNCCc1ccc(O)c(Cl)c1)N(CCNCCc1ccc(O)c2[nH]c(=O)sc12)C1CCCCC1 [Example 89, N^3-[2-(3-chloro-4-hydroxyphenyl)ethyl]-N^1-cyclohexyl-N^1-(2-{[2-(4-hydroxy-2-oxo-2,3-dihydro-1,3-benzothiazol-7-yl)ethyl]amino}ethyl)-β-alaninamide bis-trifluoroacetic acid salt] | 1.26 | 0.9
7 | O=C(CCNCCc1ccc2c(c1)OCCO2)N(CCNCCc1ccc(O)c2[nH]c(=O)sc12)C1CCCCCC1 [Example 88, N-Cycloheptyl-N^3-[2-(2,3-dihydro-1,4-benzodioxin-6-yl)ethyl]-N^1-(2-{[2-(4-hydroxy-2-oxo-2,3-dihydro-1,3-benzothiazol-7-yl)ethyl]amino}ethyl)-β-alaninamide bis-trifluoroacetic acid salt] | 25.1 | 0.37
8 | Cc1cccc(CCNCCC(=O)N(CCNCCc2ccc(O)c3[nH]c(=O)sc23)C2CCCCCC2)c1 [Example 85, N^1-Cycloheptyl-N^1-(2-{[2-(4-hydroxy-2-oxo-2,3-dihydro-1,3-benzothiazol-7-yl)ethyl]amino}ethyl)-N^3-[2-(3-methylphenyl)ethyl]-β-alaninamide bis-trifluoroacetic acid salt] | 6.31 | 0.65
9 | O=C(CCNCCc1ccc(O)c2[nH]c(=O)sc12)N(CCNCCc1ccc(O)c2[nH]c(=O)sc12)C1CCCCCC1 [Example 87, bis-trifluoroacetic acid salt] | 3.16 | 0.72
